Patent publication US20110288052A1, “NOVEL COMPOUNDS, PHARMACEUTICAL COMPOSITIONS CONTAINING SAME, AND METHODS OF USE FOR SAME” (priority 2008, published 2011)
Values after ≈ are worked out from the molar mass of the structure shown. Read-outs that look alike come from different tables or passages of the source.

Key:
[1] = biological target: T1, Human FAS purified from ZR-75-1 human breast cancer cells (Homo sapiens, UniProt P49327); assay: FAS enzymatic activity (malonyl-CoA dependent NADPH oxidation); assay type: biochemical; details: (SB)
T1 construct: Human FAS was purified from cultured ZR-75-1 human breast cancer cells; endogenous in cells; host or cells: ZR-75-1 human breast cancer cells (ATCC); enzyme purified by hypotonic lysis, PEG precipitation and Mono Q anion exchange
Experimental: Purification of FAS from ZR-75-1 Human Breast Cancer Cells. Human FAS was purified from cultured ZR-75-1 human breast cancer cells obtained from the American Type Culture Collection. The procedure, adapted from Linn et al., 1981, and Kuhajda et al., 1994, utilizes hypotonic lysis, successive polyethyleneglycol (PEG) precipitations, and anion exchange chromatography. ZR-75-1 cells are cultured at 37° C. with 5% CO2 in RPMI culture medium with 10% fetal bovine serum, penicillin and streptomycin.
Ten T150 flasks of confluent cells are lysed with 1.5 ml lysis buffer (20 mM Tris-HCl, pH 7.5, 1 mM EDTA, 0.1 mM phenylmethanesulfonyl fluoride (PMSF), 0.1% Igepal CA-630) and bounce homogenized on ice for 20 strokes. […] FAS protein concentration is determined using the Coomassie Plus Protein Assay Reagent (Pierce) according to manufacturer's specifications using BSA as a standard. […]
Measurement of FAS Enzymatic Activity and Determination of the IC50 of the Compounds FAS activity is measured by monitoring the malonyl-CoA dependent oxidation of NADPH spectrophotometrically at OD340 in 96-well plates (Dils et al and Arslanian et al, 1975). […]
The assay is performed on a Molecular Devices SpectraMax Plus Spectrophotometer. […] The plate is read again as above with the kinetic protocol to measure the malonyl-CoA dependent NADPH oxidation. […]

[2] = test system: Staphylococcus aureus (ATCC # 29213); assay: Broth microdilution antimicrobial assay, S. aureus; assay type: cell-based
Experimental: Antimicrobial Properties A broth microdilution assay is used to assess the antimicrobial activity of the compounds. Compounds are tested at twofold serial dilutions, and the concentration that inhibits visible growth (OD600 at 10% of control) is defined as the MIC. Microorganisms tested include Staphylococcus aureus (ATCC # 29213), Enterococcus faecalis (ATCC # 29212), Pseudomonas aerpginosa (ATCC # 27853), and Escherichia coli (ATCC # 25922). The assay is performed in two growth media, Mueller Hinton Broth and Trypticase Soy Broth.
A blood (Tsoy/5% sheep blood) agar plate is inoculated from frozen stocks maintained in T soy broth containing 10% glycerol and incubated overnight at 37° C. Colonies are suspended in sterile broth so that the turbidity matches the turbidity of a 0.5 McFarland standard. The inoculum is diluted 1:10 in sterile broth (Mueller Hinton or Trypticase soy) and 195 μl is dispensed per well of a 96-well plate. The compounds to be tested, dissolved in DMSO, are added to the wells in 5 μl volume at the following concentrations: 25, 12.5, 6.25, 3.125, 1.56 and 0.78 μg/ml in duplicate. Additional concentrations are tested if required. 5 μl of DMSO added to duplicate wells are the vehicle control. Serial dilutions of positive control compounds, vancomycin (E. faecalis and S. aureus) and tobramycin (E. coli and P. aerpginosa), are included in each run.
After 24 hours of incubation at 37° C., plates are read at OD600 on a Molecular Devices SpectraMax Plus Spectrophotometer. Average OD600 values are computed using SOFTmax Pro Software (Molecular Devices) and MIC values are determined by linear regression analysis using Prism version 3.02 (Graph Pad Software, San Diego). The MIC is defined as the concentration of compound required to produce an OD600 reading equivalent to 10% of the vehicle control reading.

[3] = ATCC29213, Mueller Hinton Broth, read-out: SA/MH (MIC)
[4] = ATCC29213, Trypticase Soy Broth, read-out: SA/Tsoy (MIC)

T1 sequence (P49327 2-2511 limits assumed): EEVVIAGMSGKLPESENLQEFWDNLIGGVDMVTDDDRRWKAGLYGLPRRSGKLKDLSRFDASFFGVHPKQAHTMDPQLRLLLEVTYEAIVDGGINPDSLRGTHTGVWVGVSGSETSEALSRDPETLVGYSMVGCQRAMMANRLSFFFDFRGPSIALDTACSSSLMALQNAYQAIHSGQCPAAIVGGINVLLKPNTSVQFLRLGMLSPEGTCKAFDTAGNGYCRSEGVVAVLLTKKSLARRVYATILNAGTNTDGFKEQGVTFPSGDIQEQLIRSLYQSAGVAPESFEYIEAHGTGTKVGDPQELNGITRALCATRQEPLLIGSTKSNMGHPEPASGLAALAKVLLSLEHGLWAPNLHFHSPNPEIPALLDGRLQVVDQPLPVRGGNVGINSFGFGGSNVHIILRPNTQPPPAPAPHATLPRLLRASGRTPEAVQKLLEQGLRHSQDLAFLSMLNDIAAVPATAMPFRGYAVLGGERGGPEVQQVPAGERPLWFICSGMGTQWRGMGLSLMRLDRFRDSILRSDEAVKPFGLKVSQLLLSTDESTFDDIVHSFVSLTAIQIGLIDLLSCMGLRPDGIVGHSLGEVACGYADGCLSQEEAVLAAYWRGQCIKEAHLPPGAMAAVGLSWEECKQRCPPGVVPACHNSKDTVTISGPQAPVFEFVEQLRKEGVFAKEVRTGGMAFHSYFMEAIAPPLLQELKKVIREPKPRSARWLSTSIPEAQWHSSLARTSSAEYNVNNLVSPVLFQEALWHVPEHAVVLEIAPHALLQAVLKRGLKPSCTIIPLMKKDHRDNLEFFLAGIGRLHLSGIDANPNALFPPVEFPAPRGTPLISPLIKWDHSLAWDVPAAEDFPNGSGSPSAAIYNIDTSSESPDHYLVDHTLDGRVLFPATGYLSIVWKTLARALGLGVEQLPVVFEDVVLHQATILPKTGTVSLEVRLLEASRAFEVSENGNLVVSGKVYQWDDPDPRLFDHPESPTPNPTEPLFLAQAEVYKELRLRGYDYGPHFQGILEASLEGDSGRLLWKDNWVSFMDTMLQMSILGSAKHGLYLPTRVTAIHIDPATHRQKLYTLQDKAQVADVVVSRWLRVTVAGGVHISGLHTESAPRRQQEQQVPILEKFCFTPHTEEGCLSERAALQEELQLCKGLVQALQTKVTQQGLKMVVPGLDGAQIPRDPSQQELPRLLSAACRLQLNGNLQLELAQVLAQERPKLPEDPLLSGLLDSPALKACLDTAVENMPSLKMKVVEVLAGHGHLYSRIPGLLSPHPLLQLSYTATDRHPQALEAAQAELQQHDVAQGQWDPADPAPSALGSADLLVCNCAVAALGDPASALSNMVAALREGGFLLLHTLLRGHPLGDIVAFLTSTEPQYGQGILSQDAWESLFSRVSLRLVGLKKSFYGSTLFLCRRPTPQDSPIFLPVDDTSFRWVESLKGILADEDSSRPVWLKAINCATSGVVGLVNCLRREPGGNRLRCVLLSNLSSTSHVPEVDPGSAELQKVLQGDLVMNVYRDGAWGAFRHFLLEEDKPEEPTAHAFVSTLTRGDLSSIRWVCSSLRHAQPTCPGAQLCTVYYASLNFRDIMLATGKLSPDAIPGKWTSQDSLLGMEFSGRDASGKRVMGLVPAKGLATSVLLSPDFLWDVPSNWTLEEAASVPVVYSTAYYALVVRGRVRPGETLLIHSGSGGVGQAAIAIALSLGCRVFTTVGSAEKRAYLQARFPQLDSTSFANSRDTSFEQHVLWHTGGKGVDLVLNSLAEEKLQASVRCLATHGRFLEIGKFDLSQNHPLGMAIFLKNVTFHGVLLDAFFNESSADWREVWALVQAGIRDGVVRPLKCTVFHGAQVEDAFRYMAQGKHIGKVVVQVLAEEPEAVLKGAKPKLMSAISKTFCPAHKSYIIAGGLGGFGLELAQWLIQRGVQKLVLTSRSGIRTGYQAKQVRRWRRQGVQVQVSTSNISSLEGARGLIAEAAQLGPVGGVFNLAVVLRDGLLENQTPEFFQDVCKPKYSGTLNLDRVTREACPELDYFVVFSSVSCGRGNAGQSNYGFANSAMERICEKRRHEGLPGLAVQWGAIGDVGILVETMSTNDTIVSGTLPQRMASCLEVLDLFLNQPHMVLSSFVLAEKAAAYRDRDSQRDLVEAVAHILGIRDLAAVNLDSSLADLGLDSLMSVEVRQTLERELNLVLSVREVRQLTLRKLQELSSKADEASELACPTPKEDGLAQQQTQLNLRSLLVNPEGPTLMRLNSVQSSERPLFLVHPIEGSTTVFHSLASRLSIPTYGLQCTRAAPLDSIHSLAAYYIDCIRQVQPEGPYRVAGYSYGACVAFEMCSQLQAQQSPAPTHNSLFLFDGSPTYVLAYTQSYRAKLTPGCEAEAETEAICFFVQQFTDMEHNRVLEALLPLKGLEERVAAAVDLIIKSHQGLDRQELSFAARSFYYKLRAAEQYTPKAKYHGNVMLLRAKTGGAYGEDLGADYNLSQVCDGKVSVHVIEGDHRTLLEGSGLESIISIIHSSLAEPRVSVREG

IC50 [1] | MIC [2, 3] | MIC [2, 4] | FAS (IC50) [1] | Compound
266 µM | 6 µg/mL (≈ 14.6 µM) | 3 µg/mL (≈ 7.32 µM) |  | CCCCCCCCC1(C)SC(=O)C=C1OCC(=O)Nc1ccc(Cl)cc1 (stereo not drawn)
 |  |  | Neg (SB) | CCCCCCCCC1(C)SC(=O)C=C1OCC(=O)Nc1ccc(Cl)cc1Cl (stereo not drawn)
 | 6 µg/mL (≈ 15.2 µM) | 3 µg/mL (≈ 7.62 µM) |  | CCCCCCCCC1(C)OC(=O)C=C1OCC(=O)Nc1ccc(Cl)cc1 (stereo not drawn)
